Assay results published in PMC11052913, “Determination of Regorafenib monohydrate (colorectal anticancer drug) solubility in supercritical CO2: Experimental and thermodynamic modeling” (Heliyon, 2024).
Where a name gives a salt, the structure may show the parent alone. Read-outs that look alike come from different tables or passages of the source. Marks after values point to notes of the source that are not given here.

Experiments:
[1] = cited from earlier work
[2] = Total, vaporization and solvation enthalpies of the REG-ScCO2 system estimated from Chrastil, Kumar-Johnston and Bartle et al. model constants; format: physicochemical
Description: In Fig. 3, the self-consistency test of experimental REG solubility data employed the models Chrastil, Kumar-Johnston, Bartle et al., and Mendez-Teja. […] In other words, wherein all data points at different isotherms falls onto a single straight line, indicating the self-consistency test for the solubility of REG in ScCO2 at different temperatures.
Analogous techniques were applied for Galantamine, Clonazepam, Lansoprazole, and Esomeprazole. Finally, the total (ΔHtot-=-41.16 kJ/mol), vaporization (ΔHvap-=-60.04 kJ/mol), and solvation (ΔHsol-=-18.88 kJ/mol) enthalpies for the REG-ScCO2 binary system were estimated as part of this work. More detail of enthalpies of the REG can be seen in Table 4.

[3] = Solubility of REG in supercritical CO2, static isobaric-isothermal method with UV-Vis quantification; format: physicochemical
Method: The solubility of REG in ScCO2 was measured using a pilot-scale apparatus, as depicted in Fig. 1. […] An F-1 CO2 cylinder, an F-2 needle valve, an F-3 molecular sieve filter, an F-4 refrigeration unit, an F-5 high-pressure pump, an F-6 air compressor, an F-7 oven, an F-8 magnetic stirrer, an F-9 high-pressure equilibrium cell, an F-10 3-position valve, and an F-16 back-pressure valve were all part of the apparatus.
In each experimental trial, a consistent amount of 1 g of the REG drug was administered into the immobile cell, which was subsequently positioned inside a thermal chamber. The aforementioned measure was enacted with the purpose of ensuring that the temperature remains within a narrow range of ±0.1 K from the designated experimental point. At both cell ends, stainless-steel sintered filters were added to limit undissolved REG. After that, high-pressure CO2 was poured into the cell and allowed to sit for 70 min in order to obtain saturation. Based on earlier studies, we know that 60 min is sufficient to achieve balance. The isobaric-isothermal category includes this kind of measurement. Throughout the experiment, the target temperatures and pressure levels were kept within ±0.1 K and ±0.1 MPa, respectively, for every data point. Following the triplicate execution of the experiments, the average solubility values were computed.
After reaching equilibrium, we used a 2-position 6-way port valve to collect 600 μL of saturated ScCO2 samples. The materials were thereafter transferred into a vial that was pre-filled with dimethyl sulfoxide (DMSO). The flow rate was managed by means of a micrometer valve. Each experiment was finished with the flow line being purified with 1 mL of DMSO after 5 mL of the solution had been collected. Using a UNICO-4802 UV–Vis spectrophotometer set to a peak wavelength (λmax) of 275 nm, we examined the absorbance of REG in DMSO for solubility assessment. The solubility of REG in ScCO2 was determined according to a given equation. The amount of REG dissolved in ScCO2, denoted as (y2), was measured in terms of mole fraction. […] The quantification of the dissolved substance was accomplished through the measurement of UV absorbance. The calculation of the moles of REG (nREG) and CO2 (n1) in the loop was performed as follows:(1) nREG=CREG(g/L).VREG(L)/MREG(g/mol) (2) n1=V1(L).ρ1(g/L)/M1(g/mol)
The concentration of REG (g/L) in the collection vial is denoted as CREG. The sampling loop and the collection vial are represented by V1 (L) and VREG (L), respectively. The symbols M1 and MREG represent the molar masses of carbon dioxide (CO2) and a substance denoted as REG, respectively. The method out-lined in references was employed to determine the equilibrium mole fraction of REG, denoted as y2, in supercritical CO2 under varying temperatures and pressures.(3) y2=nREG/n1+nREG
The following equation was applied to determine the solubility of REG, S (in g/L), in the supercritical CO2(4) S=CREG(g/L).VREG(L)/V1(L)
Eq. (4) can be reformulated as below:(5) S=ρMREG/M1y2/(1−y2) In fact, Eq. (5) is another form of Eq. (4).

[4] = set-up: method as in PMID 28214672, doi:10.1016/j.jddst.2019.101462; details: pH 6.5 and 22–23 °C; cited from earlier work

In the case of CC(=O)N(c1ccccc1)c1ccc(C)cc1 [4-Methyl-N-phenylacetanilide], the “Mole fraction solubility in ScCO2” value ([1]; N 21, T 308-328 K, P 12.16-22.5 MPa, ref [2] of supplement) is listed as 38.4-480.2 (×10^6) mole fraction.

For Cc1ccc(C(=O)O)cc1 [4-Methylbenzoic acid], the “Mole fraction solubility in ScCO2” value ([1]; N 18, T 313-333 K, P 11-24.6 MPa, ref [3] of supplement) is listed as 43-702 (×10^6) mole fraction.

In the case of CS(=O)(=O)OCCCCOS(C)(=O)=O [Busulfan], the “Mole fraction solubility in ScCO2” value ([1]; N 32, T 308-328 K, P 12-40 MPa, ref [5] of supplement) is listed as 32.7-865 (×10^6) mole fraction.

For O=C(O)c1ccccc1Nc1cccc(Cl)c1Cl [Clofenamic acid], the “Mole fraction solubility in ScCO2” value ([1]; N 24, T 313-333 K, P 12-36 MPa, ref [9] of supplement) is given as 1.54-35.44 (×10^6) mole fraction.

For CC(C)(Oc1ccc(Cl)cc1)C(=O)O [Clofibric acid], the “Mole fraction solubility in ScCO2” value ([1]; N 21, T 308-328 K, P 10.01-22.02 MPa, clofibric acid, ref [7] of supplement) is listed as 32.1-856 (×10^6) mole fraction.

In the case of O=C1CN=C(c2ccccc2Cl)c2cc([N+](=O)[O-])ccc2N1 [Clonazepam], the “Mole fraction solubility in ScCO2” value ([1]; N 28, T 308-338 K, P 12-30 MPa, ref [1] of supplement) is given as 3.9-72.6 (×10^6) mole fraction.

In the case of Cc1nc(Nc2ncc(C(=O)Nc3c(C)cccc3Cl)s2)cc(N2CCN(CCO)CC2)n1 [Dasatinib monohydrate], the “Mole fraction solubility in ScCO2” value ([1]; N 24, T 328-338 K, P 12-27 MPa, ref [11] of supplement) is given as 0.45 - 9.08 (×10^6) mole fraction.

For Cc1ccc(C)c(OCCCC(C)(C)C(=O)O)c1 [Gemfibrozil], the “Mole fraction solubility in ScCO2” value ([1]; N 21, T 308-328 K, P 10.01-22.02 MPa, gemfibrozil, ref [7] of supplement) is listed as 29.4-4190 (×10^6) mole fraction.

For Nc1nnc(-c2cccc(Cl)c2Cl)c(N)n1 [Lamotrigine], the “Mole fraction solubility in ScCO2” value ([1]; N 36, T 318-338 K, P 12.16-35.46 MPa, ref [8] of supplement) is listed as 0.3-5.9 (×10^6) mole fraction.

In the case of COc1cc2nc(N3CCN(C(=O)c4ccco4)CC3)nc(N)c2cc1OC [Prazosin Hydrochloride], the “Mole fraction solubility in ScCO2” value ([1]; N 24, T 328-338 K, P 12-27 MPa, ref [12] of supplement) is given as 1.5-72 (×10^6) mole fraction.

For CNC(=O)c1cc(Oc2ccc(NC(=O)Nc3ccc(Cl)c(C(F)(F)F)c3)c(F)c2)ccn1 [Regorafenib monohydrate, 4-(4-(3-(4-chloro-3-(trifluoromethyl)phenyl)ureido)-3-fluorophenoxy)-N-methylpicolinamide], the “vaporization enthalpy ΔHvap” value ([2]; based on Bartle et al. model) was 60.04 kJ/mol, the ΔHtot ([2]; based on Kumar-Johnston model) was 41.14 kJ/mol and the ΔHtot ([2]; based on the Chrastil model) was 41.17 kJ/mol. It also gave a S (equilibrium solubility) in ScCO2 ([3]; 308 K, 120 bar, CO2 density 769 kg/m^3) of 0.0106 g/L, a S (equilibrium solubility) in ScCO2 ([3]; 308 K, 150 bar, CO2 density 817 kg/m^3) of 0.0155 g/L and a S (equilibrium solubility) in ScCO2 ([3]; 308 K, 180 bar, CO2 density 849 kg/m^3) of 0.018 g/L. The S (equilibrium solubility) in ScCO2 ([3]; 308 K, 210 bar, CO2 density 875 kg/m^3) was 0.0226 g/L, the S (equilibrium solubility) in ScCO2 ([3]; 308 K, 240 bar, CO2 density 896 kg/m^3) was 0.0292 g/L and the S (equilibrium solubility) in ScCO2 ([3]; 308 K, 270 bar, CO2 density 914 kg/m^3) was 0.0315 g/L. It also gave a S (equilibrium solubility) in ScCO2 ([3]; 318 K, 120 bar, CO2 density 661 kg/m^3) of 0.0072 g/L, a S (equilibrium solubility) in ScCO2 ([3]; 318 K, 150 bar, CO2 density 744 kg/m^3) of 0.0098 g/L and a S (equilibrium solubility) in ScCO2 ([3]; 318 K, 180 bar, CO2 density 791 kg/m^3) of 0.0124 g/L. It also gave a S (equilibrium solubility) in ScCO2 ([3]; 318 K, 210 bar, CO2 density 824 kg/m^3) of 0.0287 g/L, a S (equilibrium solubility) in ScCO2 ([3]; 318 K, 240 bar, CO2 density 851 kg/m^3) of 0.0319 g/L and a S (equilibrium solubility) in ScCO2 ([3]; 318 K, 270 bar, CO2 density 872 kg/m^3) of 0.0372 g/L. For the same compound, the S (equilibrium solubility) in ScCO2 ([3]; 328 K, 120 bar, CO2 density 509 kg/m^3) was 0.0036 g/L, the S (equilibrium solubility) in ScCO2 ([3]; 328 K, 150 bar, CO2 density 656 kg/m^3) was 0.007 g/L and the S (equilibrium solubility) in ScCO2 ([3]; 328 K, 180 bar, CO2 density 725 kg/m^3) was 0.01 g/L. It also gave a S (equilibrium solubility) in ScCO2 ([3]; 328 K, 210 bar, CO2 density 769 kg/m^3) of 0.0331 g/L, a S (equilibrium solubility) in ScCO2 ([3]; 328 K, 240 bar, CO2 density 802 kg/m^3) of 0.0371 g/L and a S (equilibrium solubility) in ScCO2 ([3]; 328 K, 270 bar, CO2 density 829 kg/m^3) of 0.0392 g/L. It also gave a S (equilibrium solubility) in ScCO2 ([3]; 338 K, 120 bar, CO2 density 388 kg/m^3) of 0.0013 g/L, a S (equilibrium solubility) in ScCO2 ([3]; 338 K, 150 bar, CO2 density 557 kg/m^3) of 0.0037 g/L and a S (equilibrium solubility) in ScCO2 ([3]; 338 K, 180 bar, CO2 density 652 kg/m^3) of 0.0072 g/L. For the same compound, the S (equilibrium solubility) in ScCO2 ([3]; 338 K, 210 bar, CO2 density 710 kg/m^3) was 0.0346 g/L, the S (equilibrium solubility) in ScCO2 ([3]; 338 K, 240 bar, CO2 density 751 kg/m^3) was 0.041 g/L and the S (equilibrium solubility) in ScCO2 ([3]; 338 K, 270 bar, CO2 density 783 kg/m^3) was 0.0553 g/L. For the same compound, the “crossover pressure of the solubility isotherms in ScCO2” value ([3]; isotherms 308–338 K) was 18–21 MPa, the “maximum equilibrium mole fraction in ScCO2” value ([3]; over 308–338 K and 120–270 bar, maximum at 338 K and 27 MPa, listed as REG) was 6.44×10^−6 mole fraction and the “minimum equilibrium mole fraction in ScCO2” value ([3]; over 308–338 K and 120–270 bar, minimum at 338 K, listed as REG) was 3.06×10^−7 mole fraction. The solubility in water [4] was 0.12 µg/mL.
